The melting point is the temperature, or range, at which the solid turns liquid. As usually defined, the Ki is the dissociation constant of the complex between target and ligand, obtained from inhibition or displacement.

We go through two molecules from US6448249B1, “Substituted 1,2,4-triazolo[3,4-A]phthalazine derivatives as GABAα5 ligands” (Merck Sharp & Dohme Ltd., priority 1998, dated 2002).

For data set [1], the system named is cognition. Kind of data set: rat water maze test (Morris). It counts as in vivo. The text has this: Cognition enhancement can be shown by testing the compound in the Morris watermaze as reported by McNamara and Skelton, Psychobiology, 21:101-108. The functional efficacy at the various receptor subtypes can be calculated using the method disclosed in WO-A-9625948.

The nature of data set [2]: receptor occupancy at the minimum effective dose. The data set is classed as in vivo. The conditions noted are these: Rattus norvegicus; at dose of 0.3 mg/kg.
For data set [3], the target named is T1, human GABAA receptors containing the α5 subunit (Homo sapiens, UniProt P18507+P31644).
T1 construct: expressed in transfected cells; host or cells: Ltk- cells (mouse fibroblasts), stably expressing
T1 sequence (P31644 32-462): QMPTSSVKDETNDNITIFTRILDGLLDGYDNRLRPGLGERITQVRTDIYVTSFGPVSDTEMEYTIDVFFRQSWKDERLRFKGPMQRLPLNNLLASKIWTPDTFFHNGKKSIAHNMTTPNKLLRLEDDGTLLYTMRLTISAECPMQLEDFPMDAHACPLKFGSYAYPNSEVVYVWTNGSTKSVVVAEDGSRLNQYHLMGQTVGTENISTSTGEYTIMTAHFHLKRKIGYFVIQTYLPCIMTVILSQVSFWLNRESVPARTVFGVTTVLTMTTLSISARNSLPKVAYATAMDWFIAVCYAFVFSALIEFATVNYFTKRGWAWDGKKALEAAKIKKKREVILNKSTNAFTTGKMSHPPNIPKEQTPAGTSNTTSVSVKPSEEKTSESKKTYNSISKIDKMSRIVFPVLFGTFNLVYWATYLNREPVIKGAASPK
T1 sequence (P28472 26-473 partner): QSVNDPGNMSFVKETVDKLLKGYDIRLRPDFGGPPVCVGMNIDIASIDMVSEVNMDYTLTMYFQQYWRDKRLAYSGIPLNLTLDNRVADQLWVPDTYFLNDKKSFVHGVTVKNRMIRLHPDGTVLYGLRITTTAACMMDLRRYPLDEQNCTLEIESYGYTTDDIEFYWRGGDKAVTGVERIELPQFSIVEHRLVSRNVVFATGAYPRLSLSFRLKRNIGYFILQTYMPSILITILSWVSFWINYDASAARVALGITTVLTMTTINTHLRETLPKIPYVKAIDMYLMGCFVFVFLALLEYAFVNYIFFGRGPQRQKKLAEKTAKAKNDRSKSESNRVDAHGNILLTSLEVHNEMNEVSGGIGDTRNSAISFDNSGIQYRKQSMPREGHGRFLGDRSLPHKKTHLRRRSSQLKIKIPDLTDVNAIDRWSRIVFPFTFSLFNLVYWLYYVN
T1 sequence (P18507 40-467 limits assumed): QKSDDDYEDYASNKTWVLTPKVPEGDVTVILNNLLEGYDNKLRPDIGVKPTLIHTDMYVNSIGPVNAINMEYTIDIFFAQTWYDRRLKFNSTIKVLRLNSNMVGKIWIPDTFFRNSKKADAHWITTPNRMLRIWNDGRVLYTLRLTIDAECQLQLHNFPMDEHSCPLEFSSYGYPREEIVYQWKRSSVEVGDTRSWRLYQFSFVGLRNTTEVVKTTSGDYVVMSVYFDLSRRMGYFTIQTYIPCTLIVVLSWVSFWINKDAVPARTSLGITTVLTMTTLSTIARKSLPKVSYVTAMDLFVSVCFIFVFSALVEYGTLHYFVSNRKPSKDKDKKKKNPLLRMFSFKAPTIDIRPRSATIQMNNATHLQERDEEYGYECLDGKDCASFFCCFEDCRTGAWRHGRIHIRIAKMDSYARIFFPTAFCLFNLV
Kind of data set: [3H]-flumazenil (Ro 15-1788) displacement binding assay. Conditions: α5β3γ2 stably expressed in Ltk− cells; read-out: Ki value for displacement of [3H]Ro 15-1788 from the α5 subunit of the human GABAA receptor. As for the experimental part: Phosphate buffered saline (PBS).
Assay buffer: 10 mM KH2PO4, 100 mM KCl, pH 7.4 at room temperature.
[^3H]-Flumazenil (18 nM for α1β3γ2 cells; 18 nM for α2β3γ2 cells; 10 nM for α3β3γ2 cells; 10 nM for α5β3γ2 cells) in assay buffer.
Flunitrazepam 100 μM in assay buffer.
Cells resuspended in assay buffer (1 tray to 10 ml).
Supernatant is removed from cells. PBS (approximately 20 ml) is added. The cells are scraped and placed in a 50 ml centrifuge tube. The procedure is repeated with a further 10 ml of PBS to ensure that most of the cells are removed. The cells are pelleted by centrifuging for 20 min at 3000 rpm in a benchtop centrifuge, and then frozen if desired. The pellets are resuspended in 10 ml of buffer per tray (25 cm×25 cm) of cells.
Can be carried out in deep 96-well plates or in tubes. Each tube contains:
50 μl of [^3H]-flumazenil (final concentration for α1β3γ2: 1.8 nM; for α2β3γ2: 1.8 nM; for α3β3γ2: […]; for α5β3γ2: 1.0nM). […]
Assays are incubated for 1 hour at […], then filtered using either a Tomtec or Brandel cell harvester onto GF/B filter followed by 3×3 ml washes with ice cold assay buffer. Filters are dried and counted by liquid scintillation counting. […] Binding parameters are determined by non-linear least squares regression analysis, from which the inhibition constant Ki can be calculated for the test compound.
In general terms: In a radioligand displacement assay an active substance lowers the binding of a labelled ligand.

`Cc1cc(-c2nnc3c4ccccc4c(OCc4cccc(Br)n4)nn23)no1` [Reference Example 2, 6-(6-Bromopyridin-2-yl)methyloxy-3-(5-methylisoxazol-3-yl)-1,2,4-triazolo[3,4-a]phthalazine] gave a melting point of 247.5 to 249 °C.

`Cc1cc(-c2nnc3c4ccccc4c(OCc4cn(C)nn4)nn23)no1` [compound of the present invention, 3-(5-methylisoxazol-3-yl)-6-(1-methyl-1,2,3-triazol-4-yl)methyloxy-1,2,4-triazolo[3,4-a]phthalazine]: in data set [1] (demonstrated at 0.3 mg/kg and also at 3 mg/kg), the “cognition enhancement in the rat water maze test” value was “enhance cognition”. The “minimum effective dose for cognition enhancement” value in data set [1] (rat water maze) is listed as 0.3 mg/kg. The same molecule yielded a receptor occupancy at 0.3 mg/kg in data set [2] of 40%. In addition, the Ki in data set [3] was at most 0.1 µM.
